Reference: PubChem BioAssay AID1259407 (Chemical Carcinogenesis Research Information System (CCRIS), 2018)
The source made the active and inactive calls. How the calls were made is not given here.

Test system: CCRIS mutagenicity, Ames/micronucleus/aberration tests
Test: CCRIS mutagenicity studies
[1] = Test System: AMES SALMONELLA TYPHIMURIUM, Strain/Indicator: TA98, Metabolic Activation: NONE, Method: PREINCUBATION
[2] = Test System: AMES SALMONELLA TYPHIMURIUM, Strain/Indicator: TA100, Metabolic Activation: HAMSTER, LIVER, S-9, AROCLOR 1254 (30%), Method: PREINCUBATION
[3] = Test System: AMES SALMONELLA TYPHIMURIUM, Strain/Indicator: TA100, Metabolic Activation: RAT, LIVER, S-9, AROCLOR 1254 (30%), Method: PREINCUBATION
[4] = Test System: AMES SALMONELLA TYPHIMURIUM, Strain/Indicator: TA100, Metabolic Activation: NONE, Method: PREINCUBATION
[5] = Test System: AMES SALMONELLA TYPHIMURIUM, Strain/Indicator: TA98, Metabolic Activation: NONE, Method: STANDARD PLATE
[6] = Test System: AMES SALMONELLA TYPHIMURIUM, Strain/Indicator: TA100, Metabolic Activation: NONE, Method: STANDARD PLATE

With C=CC(C)=O the mutagenic call (Test System: AMES SALMONELLA TYPHIMURIUM, Strain/Indicator: TA98, Metabolic Activation: HAMSTER, LIVER, S-9, AROCLOR 1254 (30%), Method: PREINCUBATION) was “inactive; negative”, the mutagenic call [1] was “inactive; negative” and the mutagenic call (Test System: AMES SALMONELLA TYPHIMURIUM, Strain/Indicator: TA98, Metabolic Activation: RAT, LIVER, S-9, AROCLOR 1254 (30%), Method: PREINCUBATION) was “inactive; negative”. The mutagenic call [2] was “active; positive”, the mutagenic call [3] was “inactive; negative” and the mutagenic call (Test System: AMES SALMONELLA TYPHIMURIUM, Strain/Indicator: TA100, Metabolic Activation: RAT, LIVER, S-9, Method: PREINCUBATION) was “active; positive”. The mutagenic call (Test System: AMES SALMONELLA TYPHIMURIUM, Strain/Indicator: TA102, Metabolic Activation: S-9, Method: STANDARD PLATE) was “inactive; negative”, the mutagenic call (Test System: AMES SALMONELLA TYPHIMURIUM, Strain/Indicator: TA2638, Metabolic Activation: S-9, Method: STANDARD PLATE) was “active; positive” and the mutagenic call (Test System: E. COLI, Strain/Indicator: WP2 (PKM101), Metabolic Activation: S-9, Method: STANDARD PLATE) was “active; positive”. For the same compound, the mutagenic call (Test System: E. COLI, Strain/Indicator: WP2 UVRA (PKM101), Metabolic Activation: S-9, Method: STANDARD PLATE) was “active; positive”.

With Nc1cnc2ccccc2c1 the mutagenic call [1] was “inactive; negative”, the mutagenic call (Test System: AMES SALMONELLA TYPHIMURIUM, Strain/Indicator: TA98, Metabolic Activation: RAT, LIVER, S-9, KANECHLOR 500 OR PHENOBARBITAL AND BETA-NAPHTHOFLAVONE, Method: PREINCUBATION) was “active; positive” and the mutagenic call [4] was “inactive; negative”. For the same compound, the mutagenic call (Test System: AMES SALMONELLA TYPHIMURIUM, Strain/Indicator: TA100, Metabolic Activation: RAT, LIVER, S-9, KANECHLOR 500 OR PHENOBARBITAL AND BETA-NAPHTHOFLAVONE, Method: PREINCUBATION) was “active; positive”.

For IC(I)I, the mutagenic call (End Point: IN VITRO CHROMOSOMAL ABERRATIONS, Test System: SYRIAN HAMSTER EMBRYO (SHE) CELLS, Metabolic Activation: NONE) was “inactive; negative; toxicity at 160 and 240 um”, the mutagenic call (End Point: IN VITRO CHROMOSOMAL ABERRATIONS, Test System: SYRIAN HAMSTER EMBRYO (SHE) CELLS, Metabolic Activation: RAT, LIVER, S-9) was “inactive; negative” and the mutagenic call (End Point: In vitro chromosomal aberrations, Test System: D824 human dental pulp cells, Metabolic Activation: None) was “active; positive (structural changes and ploidy)”.

For C1CN2CCN1CC2, the mutagenic call [1] was “inactive; negative”, the mutagenic call (Test System: AMES SALMONELLA TYPHIMURIUM, Strain/Indicator: TA98, Metabolic Activation: RAT, LIVER, S-9, PCB, Method: PREINCUBATION) was “inactive; negative” and the mutagenic call [4] was “inactive; negative”. The mutagenic call (Test System: AMES SALMONELLA TYPHIMURIUM, Strain/Indicator: TA100, Metabolic Activation: RAT, LIVER, S-9, PCB, Method: PREINCUBATION) was “inactive; negative”.

CN(C)CCNC(=O)c1cccn2cc(-c3ccccc3)nc12 was tested, and the mutagenic call (Test System: AMES SALMONELLA TYPHIMURIUM, Strain/Indicator: TA1537, Metabolic Activation: NONE, Method: STANDARD PLATE) was “active; positive”.

In the case of c1cc2ccc3ccc4ccc5cccc6c(c1)c2c3c4c56, the mutagenic call (Test System: AMES SALMONELLA TYPHIMURIUM, Strain/Indicator: TA97, Metabolic Activation: NONE, Method: STANDARD PLATE) is reported as “inactive; negative”, the mutagenic call (Test System: AMES SALMONELLA TYPHIMURIUM, Strain/Indicator: TA97, Metabolic Activation: RAT, LIVER, S-9, PCB, Method: STANDARD PLATE) is reported as “active; positive” and the mutagenic call [5] is reported as “inactive; negative”. For the same compound, the mutagenic call (Test System: AMES SALMONELLA TYPHIMURIUM, Strain/Indicator: TA98, Metabolic Activation: RAT, LIVER, S-9, AROCLOR 1254, Method: FLUCTUATION) was “active; positive”, the mutagenic call (Test System: AMES SALMONELLA TYPHIMURIUM, Strain/Indicator: TA98, Metabolic Activation: RAT, LIVER, S-9, AROCLOR 1254, Method: STANDARD PLATE) was “active; positive” and the mutagenic call (Test System: AMES SALMONELLA TYPHIMURIUM, Strain/Indicator: TA98, Metabolic Activation: RAT, LIVER, S-9, PCB, Method: STANDARD PLATE) was “active; positive”. The mutagenic call [6] was “inactive; negative”, the mutagenic call (Test System: AMES SALMONELLA TYPHIMURIUM, Strain/Indicator: TA100, Metabolic Activation: RAT, LIVER, S-9, AROCLOR 1254, Method: STANDARD PLATE) was “active; positive” and the mutagenic call (Test System: AMES SALMONELLA TYPHIMURIUM, Strain/Indicator: TA100, Metabolic Activation: RAT, LIVER, S-9, PCB, Method: STANDARD PLATE) was “inactive; negative”. For the same compound, the mutagenic call (Test System: AMES SALMONELLA TYPHIMURIUM, Strain/Indicator: TA1537, Metabolic Activation: RAT, LIVER, S-9, AROCLOR 1254, Method: STANDARD PLATE) was “active; positive”, the mutagenic call (Test System: AMES SALMONELLA TYPHIMURIUM, Strain/Indicator: TA1538, Metabolic Activation: RAT, LIVER, S-9, AROCLOR 1254, Method: FLUCTUATION) was “active; positive” and the mutagenic call (Test System: AMES SALMONELLA TYPHIMURIUM, Strain/Indicator: TA1538, Metabolic Activation: RAT, LIVER, S-9, AROCLOR 1254, Method: STANDARD PLATE) was “active; positive”. For the same compound, the mutagenic call (Test System: AMES SALMONELLA TYPHIMURIUM, Strain/Indicator: TA1538, Metabolic Activation: RAT, LIVER, S-9, PHENOBARBITAL, Method: STANDARD PLATE) was “active; positive”.

With O=C(OCC1CO1)C1CCCCC1C(=O)OCC1CO1 (stereo unspecified) the mutagenic call [2] was “active; positive”, the mutagenic call [4] was “active; positive” and the mutagenic call [3] was “active; positive”. The mutagenic call (Test System: AMES SALMONELLA TYPHIMURIUM, Strain/Indicator: TA1535, Metabolic Activation: HAMSTER, LIVER, S-9, AROCLOR 1254 (30%), Method: PREINCUBATION) was “active; positive”, the mutagenic call (Test System: AMES SALMONELLA TYPHIMURIUM, Strain/Indicator: TA1535, Metabolic Activation: NONE, Method: PREINCUBATION) was “active; positive” and the mutagenic call (Test System: AMES SALMONELLA TYPHIMURIUM, Strain/Indicator: TA1535, Metabolic Activation: RAT, LIVER, S-9, AROCLOR 1254 (30%), Method: PREINCUBATION) was “active; positive”.

In the case of Clc1ccc(C(c2ccccc2Cl)C(Cl)Cl)cc1 (stereo unspecified), the mutagenic call (End Point: IN VITRO CHROMOSOMAL ABERRATIONS, Test System: CHINESE HAMSTER OVARY CELLS, Metabolic Activation: NONE) is reported as “inactive; negative”, the mutagenic call (End Point: IN VITRO CHROMOSOMAL ABERRATIONS, Test System: CHINESE HAMSTER OVARY CELLS, Metabolic Activation: RAT, LIVER, S-9, AROCLOR 1254) is reported as “inactive; negative” and the mutagenic call (Test System: AMES SALMONELLA TYPHIMURIUM, Strain/Indicator: TA98, Metabolic Activation: MOUSE, LIVER, S-9, Method: STANDARD PLATE) is reported as “inactive; negative”. The mutagenic call [5] was “inactive; negative”, the mutagenic call (Test System: AMES SALMONELLA TYPHIMURIUM, Strain/Indicator: TA98, Metabolic Activation: RAT, LIVER, S-9, Method: STANDARD PLATE) was “inactive; negative” and the mutagenic call (Test System: AMES SALMONELLA TYPHIMURIUM, Strain/Indicator: TA100, Metabolic Activation: MOUSE, LUNG, S-9, Method: STANDARD PLATE) was “inactive; negative”. For the same compound, the mutagenic call [6] was “inactive; negative”, the mutagenic call (Test System: AMES SALMONELLA TYPHIMURIUM, Strain/Indicator: TA100, Metabolic Activation: RAT, LIVER, S-9, Method: STANDARD PLATE) was “inactive; negative” and the mutagenic call (Test System: UDS RODENT HEPATOCYTES, Strain/Indicator: THY INCORP (NON-S-PHASE), Metabolic Activation: NONE, Method: LIQUID SCINTILLATION COUNTING) was “inactive; negative”. For the same compound, the mutagenic call (Test System: UDS RODENT LUNG CELLS, Strain/Indicator: THY INCORP (NON-S-PHASE), Metabolic Activation: NONE, Method: LIQUID SCINTILLATION COUNTING) was “active; positive”.
